Patent US20120040920A1, “OLIGOSACCHARIDE ALDONIC ACIDS AND THEIR TOPICAL USE” (priority 1999, published 2012)

Tests used:
Type in all cases: in vivo, human
[1] = system: skin changes associated with aging; experiment: skin thickness of forearm by micrometer calipers after topical application; conditions: twice daily, four weeks, person
Method: In one of the studies related to skin changes associated with aging, skin thickness was measured by micrometer calipers as follows:
The skin was grasped with a 2×6 cm metal hinge; the internal faces of which were coated with emery cloth to prevent slippage, and manually squeezed to threshold subject discomfort. Combined thickness of two whole-skin layers including thickness of the two hinge leaves was measured with micrometer calipers. Thickness of the two hinge leaves was subtracted to determine the actual thickness of two whole-skin layers. Triplicate measurements on treated sites were done and an average number was used for calculation of the skin thickness.
A subject, topically applied twice daily to their left forearm for four weeks lactobionic acid 22% in a solution prepared from water 7 parts and propylene glycol 3 parts. After four weeks their right forearm was still loose and relatively thin, and the skin was relatively rough and dry. […] While there was no change in skin thickness of their right forearm, their left forearm had increased 12% in skin thickness as measured by the micrometer calipers described in the Example.

[2] = system: skin fissures (open cuts); experiment: topical treatment of skin fissures at finger tips; conditions: 10% oil-in-water cream twice daily, person
Method: A subject, having two skin fissures (open cuts) 2-3 mm long at the finger tips, extending from the hyponychia, topically applied twice daily lactobionic acid 10% oil-in-water cream to one fissure for one week. The other fissure was treated with a vehicle control.

dry vaginal mucosa = experiment: topical treatment of dry vaginal mucosa; conditions: 5% in molecular complex with 0.5% L-arginine, oil-in-water cream pH 3.1, twice daily, one week, person
Method: Lactobionic acid 50% aqueous solution 10 g was uniformly mixed with an oil-in-water base 80 g, and the cream thus obtained had pH 2.5. L-Arginine 5% solution 10 g prepared from 8 parts water and 2 parts propylene glycol by volume was added to form molecular complex of amphoteric system as shown by the increase of pH to 3.1. The composition thus formulated contained 5% lactobionic acid in molecular complex with 0.5% L-arginine.
A subject, having dry vaginal mucosa topically applied the above bionic acid cream twice daily to the affected areas of the mucosa.

[3] = system: scrotum and perineum itch; experiment: topical treatment of scrotum and perineum itch; conditions: 18% oil-in-water cream pH 2.0, person
Text: Lactobionic acid 54% aqueous solution 30 g was uniformly mixed with an oil-in-water base 60 g. The cream thus prepared had pH 2.0 and contained 18% lactobionic acid.
A subject, having a lasting scrotum and perineum itch after each time taking a shower topically applied the above bionic acid cream to the affected areas of the skin.

[4] = system: linear wounds 1 cm in length and 0.5 mm in depth; experiment: healing of linear needle wounds on forearm; conditions: 2% in distilled water
Text: A sterile 22-gauge needle was held in the jaws of a surgical needle holder, and two linear wounds 1 cm in length and 0.5 mm in depth were made on alcohol-swabbed left forearm of a healthy subject. The wounds were swabbed dry with cotton balls. A control solution containing 0.9% sodium chloride in distilled water was applied to one wound, and a test solution containing 2% lactobionic acid in distilled water was applied to the other wound. Both wounds were covered with 3M Tegaderm tapes for five days. […] The erythema disappeared from both skin sites at the end of nine days.

O=C(O)[C@H](O)[C@@H](O)[C@H](O[C@@H]1O[C@H](CO)[C@H](O)[C@H](O)[C@H]1O)[C@H](O)CO [lactobionic acid]
increase in skin thickness ([1]; 22% in water/propylene glycol 7:3 solution, left forearm): 12% | skin condition of treated forearm ([1]; 22% solution): more firm and plump, and the skin was smooth, soft and not dry | healing of skin fissure ([2]; after a week, vehicle site unhealed): skin fissure healed completely | pain of skin fissure [2]: pain disappeared after a few days | dryness of vaginal mucosa (dry vaginal mucosa): dryness of vaginal mucosa disappeared completely | itch [3]: itch stopped immediately | wound healing ([4]; covered five days, end of one week, saline control not epithelialized): healed with re-epithelialization | time to disappearance of erythema ([4]; same at control site): nine
